Measurements published in ChEMBL document CHEMBL5131385, “Novel piperazine based benzamide derivatives as potential anti-glioblastoma agents inhibiting cell proliferation and cell cycle progression” (Eur J Med Chem, 2022).
Activity calls are given as the source filed them. The calls are words filed in the database; no cut-off is given here.

Key:
U-87MG ATCC [1] = experiment: Induction of apoptosis in human U-87 MG cells assessed as reduction in cell count at 0.075 to 1.20 uM measured after 72 hrs by Giemsa staining based microscopic analysis; type: functional; conditions: dose 0.075-1.2 µM
U-251 [2] = experiment: Antimigratory activity in human U-251 cells assessed as inhibition of cell migration by measuring wound closure at 0.25 to 1.0 uM and measured after 24 hrs by transwell migration assay; type: functional, cell-based; conditions: dose 0.25-1 µM, DDE = dose-dependent effect
U-251 [3] = experiment: Antimigratory activity in human U-251 cells assessed as inhibition of cell migration by measuring wound closure at 0.25 to 1.0 uM and measured after 24 hrs by wound healing assay; type: functional, cell-based; conditions: dose 0.25-1 µM, DDE = dose-dependent effect
U-251 [4] = experiment: Antiproliferative activity against human U-251 cells assessed as inhibition of cell proliferation upto 72 hrs by CCK8 assay; type: functional, cell-based; conditions: TDE = time-dependent effect
[5] = AUC (0 to infinity) in Sprague-Dawley rat brain at 100 mg/kg, ip and measured upto 240 mins by LC-MS analysis; type: ADME, organism-based; design: dose 100 mg/kg, time < 240 min, route ip
[6] = Tmax in Sprague-Dawley rat brain at 100 mg/kg, ip and measured upto 240 mins by LC-MS analysis; type: ADME, organism-based
U-251 [7] = experiment: Induction of apoptosis in human U-251 cells assessed as necrotic cells at 0.375 uM incubated for 72 hrs by Annexin V-FITC/PI staining based flow cytometry method (Rvb =0.51 %); type: functional
U-251 [8] = experiment: Induction of cell cycle arrest in human U-251 cells assessed as accumulation at G0/G1 phase at 0.75 to 3 uM and measured after 72 hrs by flow cytometry; type: functional, cell-based; conditions: dose 0.75-3 µM, DDE = dose-dependent effect
[9] = Antiproliferative activity against human U-87 MG cells assessed as inhibition of cell proliferation measured after 72 hrs by CCK8 assay; type: functional, cell-based, U-87MG ATCC
[10] = Acute toxicity in Kunming mouse assessed as survival at 600 mg/kg, ip measured after 14 days; type: organism-based; conditions: in vivo, 336 h, time 14 day
U-251 [11] = experiment: Antiproliferative activity against human U-251 cells assessed as inhibition of cell proliferation measured after 72 hrs by CCK8 assay; type: functional, cell-based; conditions: U-251, 72 h
C6 = experiment: Antiproliferative activity against rat C6 cells assessed as inhibition of cell proliferation measured after 72 hrs by CCK8 assay; type: functional, cell-based; conditions: C6, 72 h
U-87MG ATCC [12] = experiment: Antiproliferative activity against human U-87 MG cells assessed as reduction in cell proliferation at 0.125 to 0.5 uM and measured after 24 hrs by EdU incorporation based assay; type: functional; conditions: dose 0.125-0.5 µM, DDE = dose-dependent effect
[13] = Ratio of drug level in Sprague-Dawley rat brain to plasma at 100 mg/kg, ip measured after 240 mins by LC-MS analysis; type: ADME, organism-based; conditions: read-out: logBB (converted)
U-251 [14] = experiment: Downregulation of CDK6 gene expression in human U-251 cells at 0.075 to 1.2 uM measured after 72 hrs by western blot analysis; type: functional, cell-based; conditions: dose 0.075-1.2 µM
U-87MG ATCC [15] = experiment: Upregulation of p16 INK4a gene expression in human U-87 MG cells at 0.075 to 1.2 uM measured after 72 hrs by western blot analysis; type: functional, cell-based; conditions: dose 0.075-1.2 µM
U-251 [16] = experiment: Induction of apoptosis in human U-251 cells assessed as late apoptotic cells at 1.50 uM incubated for 72 hrs by Annexin V-FITC/PI staining based flow cytometry method (Rvb =1.31 %); type: functional; conditions: dose 1.5 µM
U-87MG ATCC [17] = experiment: Induction of cell cycle arrest in human U-87 MG cells assessed as decrease in accumulation at S phase at 0.075 to 1.20 uM measured after 72 hrs by flow cytometry; type: functional, cell-based; conditions: dose 0.075-1.2 µM, DDE = dose-dependent effect
[18] = Permeability of compound across blood brain barrier in Sprague-Dawley rat at 100 mg/kg, ip and measured after 240 mins by LC-MS analysis; type: ADME, organism-based; conditions: read-out: BBR
U-251 [19] = experiment: Antiinvasive activity against human U-251 cells assessed as inhibition of cell invasion at 0.25 to 1.0 uM measured after 24 hrs by transwell invasion assay; type: functional, cell-based; conditions: dose 0.25-1 µM, DDE = dose-dependent effect
U-87MG ATCC [20] = experiment: Antiinvasive activity against human U-87 MG cells assessed as inhibition of cell invasion at 0.125 to 0.50 uM and measured after 24 hrs by transwell invasion assay; type: functional, cell-based; conditions: dose 0.125-0.5 µM, DDE = dose-dependent effect
U-251 [21] = experiment: Downregulation of cyclin D1 gene expression in human U-251 cells at 0.075 to 1.2 uM measured after 72 hrs by western blot analysis; type: functional, cell-based; conditions: dose 0.075-1.2 µM
[22] = Half life in Sprague-Dawley rat plasma at 100 mg/kg, ip and measured upto 240 mins by LC-MS analysis; type: ADME, organism-based
U-251 [23] = experiment: Downregulation of E2F gene expression in human U-251 cells at 0.075 to 1.2 uM measured after 72 hrs by western blot analysis; type: functional, cell-based; conditions: dose 0.075-1.2 µM
U-87MG ATCC [24] = experiment: Downregulation of CDK6 gene expression in human U-87 MG cells at 0.075 to 1.2 uM measured after 72 hrs by western blot analysis; type: functional, cell-based; conditions: dose 0.075-1.2 µM
U-87MG ATCC [25] = experiment: Antiproliferative activity against human U-87 MG cells assessed as release of LDH in supernatant and measured after 72 hrs by microplate reader assay; type: functional, cell-based; conditions: DDE = dose-dependent effect
[26] = Induction of apoptosis in human U-87 MG cells assessed as early apoptotic cells at 0.30 uM incubated for 72 hrs by Annexin V-FITC/PI staining based flow cytometry method (reference value: 2.53 %); type: functional, U-87MG ATCC; conditions: dose 0.3 µM
U-87MG ATCC [27] = experiment: Antitumor activity against human U-87 MG cells xenografted in BALB/c mouse assessed as decrease in tumor volume at 10 mg/kg,ip bid for 1 month; type: functional, organism-based; conditions: time 1.0 months
[28] = Induction of apoptosis in human U-87 MG cells assessed as viable cells at 1.20 uM incubated for 72 hrs by Annexin V-FITC/PI staining based flow cytometry method (reference value: 96.84 %); type: functional, U-87MG ATCC; conditions: read-out: Activity
[29] = Induction of apoptosis in human U-87 MG cells assessed as necrotic cells at 0.30 uM incubated for 72 hrs by Annexin V-FITC/PI staining based flow cytometry method (reference value: 0.21 %); type: functional, U-87MG ATCC; conditions: dose 0.3 µM
U-251 [30] = experiment: Downregulation of CDK4 gene expression in human U-251 cells at 0.075 to 1.2 uM measured after 72 hrs by western blot analysis; type: functional, cell-based; conditions: dose 0.075-1.2 µM
[31] = Induction of apoptosis in human U-87 MG cells assessed as viable cells at 0.30 uM incubated for 72 hrs by Annexin V-FITC/PI staining based flow cytometry method (reference value: 96.84 %); type: functional, U-87MG ATCC; conditions: read-out: Activity
[32] = Induction of apoptosis in human U-87 MG cells assessed as necrotic cells at 0.075 uM incubated for 72 hrs by Annexin V-FITC/PI staining based flow cytometry method (reference value: 0.21 %); type: functional, U-87MG ATCC
U-251 [33] = experiment: Induction of cell cycle arrest in human U-251 cells assessed as decrease in accumulation at G2/M phase at 0.75 to 3 uM measured after 72 hrs by flow cytometry; type: functional, cell-based; conditions: dose 0.75-3 µM, DDE = dose-dependent effect
U-251 [34] = experiment: Induction of apoptosis in human U-251 cells assessed as reduction in cell count at 0.375 to 6 uM measured after 72 hrs by Giemsa staining based microscopic analysis; type: functional; conditions: dose 0.375-6 µM
U-251 [35] = experiment: Antiproliferative activity against human U-251 cells assessed as reduction in cell proliferation at 0.075 to 1.2 uM and measured after 24 hrs by EdU incorporation based assay; type: functional; conditions: dose 0.075-1.2 µM, DDE = dose-dependent effect

COCCN1CCN(c2ccc(F)cc2C(=O)Nc2ccc(CNC(=O)OCc3cccnc3)cc2)CC1
Activity (U-87MG ATCC [1]): Active
Activity (U-251 [2]): Dde
Activity (U-251 [3]): Dde
Activity (U-251 [4]): Tde
AUC(0-inf) [5]: 102 µg·h/mL
Tmax [6]: 30 min
Activity (U-251 [7]): 0.53%
Activity (U-251 [8]): Dde
IC50 [9]: 290 nM
Activity [10]: Non-Toxic
IC50 (U-251 [11]): 1280 nM
IC50 (C6): 150 nM
Activity (U-87MG ATCC [12]): Dde
Kp at 4 h [13]: 1.07
Activity (U-251 [14]): Active
Activity (U-87MG ATCC [15]): Active
Activity (U-251 [16]): 2.47%
Activity (U-87MG ATCC [17]): Dde
Kp at 4 h [18]: 1.07
Activity (U-251 [19]): Dde
Activity (U-87MG ATCC [20]): Dde
Activity (U-251 [21]): Active
half-life [22]: 52.8 min
Activity (U-251 [23]): Active
Activity (U-87MG ATCC [24]): Active
Activity (U-87MG ATCC [25]): Dde
Activity [26]: 4.51%
Activity (U-87MG ATCC [27]): Active
viability at 1.2 µM [28]: 70.3%
Activity [29]: 0.34%
Activity (U-251 [30]): Active
viability at 0.3 µM [31]: 94.2%
Activity [32]: 0.33%
Activity (U-251 [33]): Dde
Activity (U-251 [34]): Active
Activity (U-251 [35]): Dde
